From US20230313206A1, “System for inducible expression of an adapter in immune cells” (Miltenyi Biotec B.V. & Co. KG, priority 2020, published 2023)

Key:
Type in all cases: cell-based
[1] = system: PD-1 expression on T cells; experiment: PD-1 expression (activation) of anti-His adapter CAR T cells in co-culture with Raji cells and inducible anti-CD19 Fab T cells; conditions: adapter CAR T cells (E:T 2:1) and 1E4 inducible T cells, day 2
Method: To set up the co-culture, 1E4 GFP^+ Raji cells were seeded in 50 μL TexMACS medium (Miltenyi Biotec) in a 96-well round-bottom plate. Anti-His Adapter CAR T cells were subsequently added at an E:T ratio of 2:1 in a volume of 50 μL TexMACS medium (Miltenyi Biotec). T cell numbers were adjusted to LNGFR expression implicating equal transduced and total T cell numbers in each well. The number of untransduced T cells was adjusted to total cell numbers. 1E4 anti-CD19 Fab inducible T cells that secrete the adapter molecule, a His-tagged anti-CD19 Fab, upon induction, were added to the respective wells. His-tagged anti-CD19 Fab secretion was induced by the addition of 100 nM 4-OHT (Sigma-Aldrich) in 50 μL TexMACS (Miltenyi Biotec) at the start of the assay. The plate was centrifuged at 300 g for 1 min and incubated at 37° C., 5% C02 for 2 days. Activation of T cells was analyzed by staining the cells of the co-culture with anti-PD-1-PEVio770, CD3-VioBlue, CD8-VioGreen and LNGFR-APC conjugates (Miltenyi Biotec). Therefore, the co-culture plate was centrifuged at 300 g for 5 min and cells were stained with 50 μL staining mixture composed of the PD-1 PE07, conjugate (Miltenyi Biotec) diluted in PEB for 10 min at 4° C. Cells were washed twice with 200 μL PEB (300 g, 5 min). Cells were resuspended in 100 μL PEB for subsequent flow cytometric analysis. […]

CD19+ Raji cells = experiment: Cytolytic activity of anti-His adapter CAR T cells in co-culture with Raji cells and inducible anti-CD19 Fab T cells; conditions: adapter CAR T cells (E:T 2:1) and 1E4 inducible T cells, 6 days
Method: Anti-His Adapter CAR T cell-mediated cytotoxicity against tumor cells was assessed by the quantification of living target cells using the MACSQuant® Analyzer 10 (Miltenyi Biotec). Therefore, 1E4 GFP^+ Raji cells were seeded in 50 μL TexMACS medium (Miltenyi Biotec) in a 96-well round-bottom plate. Anti-His Adapter CAR T cells were subsequently added at an E:T ratio of 2:1 in a volume of 50 μL TexMACS medium (Miltenyi Biotec). T cell numbers were adjusted to LNGFR expression implicating equal transduced and total T cell numbers in each well. The number of untransduced T cells was adjusted to total cell numbers. 1E4 anti-CD19 Fab inducible T cells that secrete the adapter molecule, a His-tagged anti-CD19 Fab, upon induction, were added to the respective wells. His-tagged anti-CD19 Fab secretion was induced by the addition of 100 nM 4-OHT (Sigma-Aldrich) in 50 μL TexMACS (Miltenyi Biotec) at the start of the assay. The plate was centrifuged at 300 g for 1 min and incubated at 37° C., 5% C02. The specific lysis of target cells was determined 6 days after co-culture set-up. […] Next, living target cells were quantified via flow cytometry. […] Living Raji tumor cells were defined as PI^−, GFP^+ cells and specific lysis was calculated according to the following formula: % specific lysis=(1−(Raji cell count [sample]/Raji cell count [target cell]))·100%.

drug-inducible T cells = experiment: Induction of anti-CD19 Fab-His6 secretion by drug-inducible primary T cells; supernatant stained on CD19+ Raji cells; conditions: 4-OHT 0-500 nM
Method: Lentiviral particles encoding for the drug-inducible cassette were manufactured as described in example 1.2. Drug-inducible T cells were generated as described in example 1.3. 1E4 LNGFR positive drug-inducible T cells were seeded in 100 μL TexMACS medium (Miltenyi Biotec) supplemented with IL-7 (Miltenyi Biotec) and IL-15 (Miltenyi Biotec) in a 96 round bottom well plate. Secretion of the His6-tagged anti-CD19 Fab was induced by the addition of different concentrations of 4-OHT (0-500 nM, Sigma-Aldrich) in 100 μL TexMACS medium (Miltenyi Biotec) supplemented with IL-7 (Miltenyi Biotec) and IL-15 (Miltenyi Biotec) to each well. Untransduced T cells constitute the negative control. Cells were incubated at 37° C. and 5% C02. His6-tagged anti-CD19 Fab containing supernatant was harvested 48 h after the induction. CD19^+ Raji cells were subsequently stained using T cell supernatant and anti-His-APC as secondary antibody. Therefore, 1E5 CD19^+ Raji cells were seeded in a 96 round bottom well plate. Cells were pelleted at 300 g for 5 min and stained with 50 μL of the collected T cell supernatant for 10 min at 4° C. […] The determined mean fluorescent intensity in the APC channel was correlated to the Fab concentration by extrapolation from a standard curve. […]

4-hydroxytamoxifen [4-OHT]
4-OHT concentration at which PD-1 expression on T cells was detected [1]: at least 10 nM | 4-OHT concentration giving maximal frequency of PD-1 positive cells [1]: at least 50 nM | 4-OHT concentration at which specific lysis of CD19+ Raji cells was detected (CD19+ Raji cells): at least 1 nM | 4-OHT concentration giving maximal specific lysis (CD19+ Raji cells): at least 10 nM | Amount of His6-tagged anti-CD19-Fab in T cell supernatant with increasing 4-OHT concentration (drug-inducible T cells; 48 h, Fab concentration extrapolated from standard curve): increasing amounts of His6-tagged anti-CD19-Fab is detected | Induction of His6-tagged anti-CD19-Fab secretion by inducible T cells (drug-inducible T cells; supernatant harvested 48 h after induction): strictly dependent on the presence of the inducer drug 4-OHT
